# Source: patent US9976141B2, “Compositions and methods for inhibiting gene expression of Hif2alpha” (Arrowhead Madison Inc., priority 2015, dated 2018)
# Strand notation (5' to 3'): a small letter for the sugar, then the base; units joined by * are phosphorothioate-linked, units joined directly phosphodiester-linked; [ ] holds rarer units or linkages, { } end groups; capitals alone tell only the bases. d = 2'-deoxy (DNA); m = 2'-O-methyl; f = 2'-fluoro
# Tested on: human EPAS1 (Hif2α) cDNA in psiCHECK2 (Renilla luciferase/EPAS1 fusion mRNA) in Hep3B cells
# Experiment: Efficacy screen of Hif2α RNAi triggers in vitro, dual-luciferase reporter assay (1 nM and 0.1 nM)
# Assay type: cell-based
# Settings: Hep3B cells co-transfected with EPAS1-psiCHECK2, Renilla luciferase normalized to firefly luciferase
# Excerpt: Candidate sequences were identified by in silico analysis and screened as chemically modified canonical siRNAs in vitro. For screening purposes, the human EPAS1 (Hif2α) cDNA sequence (accession #NM 001430) was synthesized and cloned (DNA 2.0, Menlo Park, Calif.) into a commercially-available reporter-based screening plasmid, psiCHECK2 (Promega, Madison, Wis.) which generated a Renilla luciferase/EPAS1 fusion mRNA. For RNAi trigger efficacy evaluation, Hep3B cells, a human hepatocellular carcinoma line, were plated at 10,000 cells per well in 96-well format. Each of the 187 EPAS1 RNAi triggers, in two subsets, was co-transfected at two concentrations, 1 nM and 0.1 nM, with 25 ng EPAS1-psiCHECK2 plasmid DNA per well and 0.2 μL LipoFectamine 2000 (Life Technologies) per well. Gene knockdown was determined by measuring Renilla luciferase levels normalized to the levels of constitutively-expressed firefly luciferase, also present on the psiCHECK-2 plasmid, using the Dual Luciferase Reporter Assay (Promega, Madison, Wis.) Table 5.
substance,measurement,setting,value
2258 (sense fCmAfCmGfGmUfCmAfCmCfAmAfCmAfGmAfGmGfAdT; antisense dTfCmCfUmCfUmGfUmUfGmGfUmGfAmCfCmGfUmGdT*dT; siRNA) [compound 2258],Relative Rluc-Hif2α,0.1 nM RNAi trigger,0.882 ± 0.098
same,Relative Rluc-Hif2α,1 nM RNAi trigger,0.972 ± 0.168
2265 (sense fAmGfAmAfCmUfGmAfUmUfGmGfUmUfAmCfCmAfAdT; antisense dTfUmGfGmUfAmAfCmCfAmAfUmCfAmGfUmUfCmUdT*dT; siRNA) [compound 2265],Relative Rluc-Hif2α,0.1 nM RNAi trigger,0.448 ± 0.042
same,Relative Rluc-Hif2α,1 nM RNAi trigger,0.186 ± 0.045
2280 (sense fUmAfCmCfGmGfAmUfGmCfUmCfGmCfAmAfAmGfAdT; antisense dTfCmUfUmUfGmCfGmAfGmCfAmUfCmCfGmGfUmAdT*dT; siRNA) [compound 2280],Relative Rluc-Hif2α,0.1 nM RNAi trigger,0.871 ± 0.147
same,Relative Rluc-Hif2α,1 nM RNAi trigger,0.911 ± 0.086
2261 (sense fAmGfGmCfCmGfUmAfCmUfGmUfCmAfAmCfCmUfAdT; antisense dTfAmGfGmUfUmGfAmCfAmGfUmAfCmGfGmCfCmUdT*dT; siRNA) [compound 2261],Relative Rluc-Hif2α,0.1 nM RNAi trigger,0.568 ± 0.065
same,Relative Rluc-Hif2α,1 nM RNAi trigger,0.657 ± 0.067
2401 (sense fUmAfCmCfUmGfUmCfAmAfCmGfUmAfAmCfGmAfAdT; antisense dTfUmCfGmUfUmAfCmGfUmUfGmAfCmAfGmGfUmAdT*dT; siRNA) [compound 2401],Relative Rluc-Hif2α,0.1 nM RNAi trigger,0.375 ± 0.062
same,Relative Rluc-Hif2α,1 nM RNAi trigger,0.174 ± 0.003
2343 (sense fCmUfCmCfAmAfCmGfUmAfUmGfUmGfGmUfUmAfAdT; antisense dTfUmAfAmCfCmAfCmAfUmAfCmGfUmUfGmGfAmGdT*dT; siRNA) [compound 2343],Relative Rluc-Hif2α,0.1 nM RNAi trigger,0.620 ± 0.208
same,Relative Rluc-Hif2α,1 nM RNAi trigger,0.254 ± 0.009
2275 (sense fUmGfCmGfCmUfAmGfAmCfUmCfCmGfAmGfAmAfAdT; antisense dTfUmUfCmUfCmGfGmAfGmUfCmUfAmGfCmGfCmAdT*dT; siRNA) [compound 2275],Relative Rluc-Hif2α,0.1 nM RNAi trigger,0.515 ± 0.264
same,Relative Rluc-Hif2α,1 nM RNAi trigger,0.464 ± 0.048
2237 (sense fGmUfGmCfUmCfGmGfCmGfUmCfUmGfAmAfCmGfAdT; antisense dTfCmGfUmUfCmAfGmAfCmGfCmCfGmAfGmCfAmCdT*dT; siRNA) [compound 2237],Relative Rluc-Hif2α,0.1 nM RNAi trigger,0.746 ± 0.029
same,Relative Rluc-Hif2α,1 nM RNAi trigger,0.978 ± 0.083
2234 (sense fCmGfAmCfUmCfCmCfAmGfCmAfUmUfCmGfAmGfAdT; antisense dTfCmUfCmGfAmAfUmGfCmUfGmGfGmAfGmUfCmGdT*dT; siRNA) [compound 2234],Relative Rluc-Hif2α,0.1 nM RNAi trigger,0.508 ± 0.148
same,Relative Rluc-Hif2α,1 nM RNAi trigger,0.388 ± 0.046
2392 (sense fCmAfUmUfAmAfGmGfGmCfAmUfUmUfUmAfCmCfAdT; antisense dTfGmGfUmAfAmAfAmUfGmCfCmCfUmUfAmAfUmGdT*dT; siRNA) [compound 2392],Relative Rluc-Hif2α,0.1 nM RNAi trigger,0.636 ± 0.039
same,Relative Rluc-Hif2α,1 nM RNAi trigger,0.283 ± 0.052
2382 (sense fGmGfGmUfAmAfGmAfGmGfGmAfCmGfAmCfAmCfAdT; antisense dTfGmUfGmUfCmGfUmCfCmCfUmCfUmUfAmCfCmCdT*dT; siRNA) [compound 2382],Relative Rluc-Hif2α,0.1 nM RNAi trigger,1.070 ± 0.064
same,Relative Rluc-Hif2α,1 nM RNAi trigger,1.151 ± 0.365
2279 (sense fAmGfUmAfCmCfGmGfAmUfGmCfUmCfGmCfAmAfAdT; antisense dTfUmUfGmCfGmAfGmCfAmUfCmCfGmGfUmAfCmUdT*dT; siRNA) [compound 2279],Relative Rluc-Hif2α,0.1 nM RNAi trigger,0.506 ± 0.086
same,Relative Rluc-Hif2α,1 nM RNAi trigger,0.280 ± 0.042
2284 (sense fGmCfAmUfGmGfGmGfGmCfUmAfCmGfUmGfUmGfAdT; antisense dTfCmAfCmAfCmGfUmAfGmCfCmCfCmCfAmUfGmCdT*dT; siRNA) [compound 2284],Relative Rluc-Hif2α,0.1 nM RNAi trigger,1.227 ± 0.266
same,Relative Rluc-Hif2α,1 nM RNAi trigger,0.787 ± 0.062
2399 (sense fCmCfUmAfCmCfUmGfUmCfAmAfCmGfUmAfAmCfAdT; antisense dTfGmUfUmAfCmGfUmUfGmAfCmAfGmGfUmAfGmGdT*dT; siRNA) [compound 2399],Relative Rluc-Hif2α,0.1 nM RNAi trigger,0.784 ± 0.071
same,Relative Rluc-Hif2α,1 nM RNAi trigger,0.418 ± 0.081
2289 (sense fUmUfUmGfAmUfAmGfCmAfGmUfGmGfCmAfAmGfAdT; antisense dTfCmUfUmGfCmCfAmCfUmGfCmUfAmUfCmAfAmAdT*dT; siRNA) [compound 2289],Relative Rluc-Hif2α,0.1 nM RNAi trigger,0.992 ± 0.153
same,Relative Rluc-Hif2α,1 nM RNAi trigger,1.039 ± 0.146
2350 (sense fUmGfUmCfGmGfCmUfUmUfUmUfGmCfCmAfUmCfAdT; antisense dTfGmAfUmGfGmCfAmAfAmAfAmGfCmCfGmAfCmAdT*dT; siRNA) [compound 2350],Relative Rluc-Hif2α,0.1 nM RNAi trigger,0.755 ± 0.085
same,Relative Rluc-Hif2α,1 nM RNAi trigger,0.678 ± 0.105
2260 (sense fCmAfCmCfAmAfCmAfGmAfGmGfCmCfGmUfAmCfAdT; antisense dTfGmUfAmCfGmGfCmCfUmCfUmGfUmUfGmGfUmGdT*dT; siRNA) [compound 2260],Relative Rluc-Hif2α,0.1 nM RNAi trigger,0.861 ± 0.031
same,Relative Rluc-Hif2α,1 nM RNAi trigger,1.030 ± 0.187
2410 (sense fUmAfUmUfGmUfCmGfAmAfUmUfCmCfUmAfCmUfAdT; antisense dTfAmGfUmAfGmGfAmAfUmUfCmGfAmCfAmAfUmAdT*dT; siRNA) [compound 2410],Relative Rluc-Hif2α,0.1 nM RNAi trigger,0.228 ± 0.033
same,Relative Rluc-Hif2α,1 nM RNAi trigger,0.154 ± 0.022
2327 (sense fCmCfUmGfUmCfGmUfCmAfGmCfCmCfAmCfAmAfAdT; antisense dTfUmUfGmUfGmGfGmCfUmGfAmCfGmAfCmAfGmGdT*dT; siRNA) [compound 2327],Relative Rluc-Hif2α,0.1 nM RNAi trigger,1.339 ± 0.179
same,Relative Rluc-Hif2α,1 nM RNAi trigger,1.073 ± 0.089
2277 (sense fUmAfAmGfUmGfGmCfCmAfGmUfAmCfCmGfGmAfAdT; antisense dTfUmCfCmGfGmUfAmCfUmGfGmCfCmAfCmUfUmAdT*dT; siRNA) [compound 2277],Relative Rluc-Hif2α,0.1 nM RNAi trigger,0.625 ± 0.384
same,Relative Rluc-Hif2α,1 nM RNAi trigger,0.702 ± 0.091
2411 (sense fGmAfAmUfUmCfCmUfAmCfUmGfAmCfAmAfCmAfAdT; antisense dTfUmGfUmUfGmUfCmAfGmUfAmGfGmAfAmUfUmCdT*dT; siRNA) [compound 2411],Relative Rluc-Hif2α,0.1 nM RNAi trigger,0.796 ± 0.110
same,Relative Rluc-Hif2α,1 nM RNAi trigger,0.410 ± 0.083
2310 (sense fUmUfUmGfGmGfCmCfCmAfCmAfAmAfGmUfGmGfAdT; antisense dTfCmCfAmCfUmUfUmGfUmGfGmGfCmCfCmAfAmAdT*dT; siRNA) [compound 2310],Relative Rluc-Hif2α,0.1 nM RNAi trigger,0.785 ± 0.122
same,Relative Rluc-Hif2α,1 nM RNAi trigger,0.923 ± 0.101
2306 (sense fCmCfCmCfCmAfGmAfUmCfCmAfCmCfAmUfUmAfAdT; antisense dTfUmAfAmUfGmGfUmGfGmAfUmCfUmGfGmGfGmGdT*dT; siRNA) [compound 2306],Relative Rluc-Hif2α,0.1 nM RNAi trigger,0.596 ± 0.038
same,Relative Rluc-Hif2α,1 nM RNAi trigger,0.613 ± 0.031
2416 (sense fUmUfGmAfCmAfCmUfGmGfUmAfUmCfUmUfAmUfAdT; antisense dTfAmUfAmAfGmAfUmAfCmCfAmGfUmGfUmCfAmAdT*dT; siRNA) [compound 2416],Relative Rluc-Hif2α,0.1 nM RNAi trigger,0.247 ± 0.031
same,Relative Rluc-Hif2α,1 nM RNAi trigger,0.166 ± 0.031
2339 (sense fGmGfGmUfCmAfAmCfUmCfCmAfAmCfGmUfAmUfAdT; antisense dTfAmUfAmCfGmUfUmGfGmAfGmUfUmGfAmCfCmCdT*dT; siRNA) [compound 2339],Relative Rluc-Hif2α,0.1 nM RNAi trigger,0.523 ± 0.134
same,Relative Rluc-Hif2α,1 nM RNAi trigger,0.189 ± 0.028
2336 (sense fAmCfAmAfGmUfUmUfGmGfUmGfCmAfUmGfUmCfAdT; antisense dTfGmAfCmAfUmGfCmAfCmCfAmAfAmCfUmUfGmUdT*dT; siRNA) [compound 2336],Relative Rluc-Hif2α,0.1 nM RNAi trigger,0.783 ± 0.037
same,Relative Rluc-Hif2α,1 nM RNAi trigger,0.299 ± 0.034
2251 (sense fUmCfAmCfUmCfAmUfCmCfCmUfGmCfGmAfCmCfAdT; antisense dTfGmGfUmCfGmCfAmGfGmGfAmUfGmAfGmUfGmAdT*dT; siRNA) [compound 2251],Relative Rluc-Hif2α,0.1 nM RNAi trigger,0.857 ± 0.087
same,Relative Rluc-Hif2α,1 nM RNAi trigger,0.872 ± 0.121
2243 (sense fUmUfCmAfUmGfGmGfAmCfUmUfAmCfAmCfAmGfAdT; antisense dTfCmUfGmUfGmUfAmAfGmUfCmCfCmAfUmGfAmAdT*dT; siRNA) [compound 2243],Relative Rluc-Hif2α,0.1 nM RNAi trigger,0.688 ± 0.059
same,Relative Rluc-Hif2α,1 nM RNAi trigger,0.694 ± 0.107
2393 (sense fUmAfAmGfGmGfCmAfUmUfUmUfAmCfCmCfUmUfAdT; antisense dTfAmAfGmGfGmUfAmAfAmAfUmGfCmCfCmUfUmAdT*dT; siRNA) [compound 2393],Relative Rluc-Hif2α,0.1 nM RNAi trigger,0.862 ± 0.388
same,Relative Rluc-Hif2α,1 nM RNAi trigger,1.049 ± 0.089
2383 (sense fGmGfUmAfAmGfAmGfGmGfAmCfGmAfCmAfCmCfAdT; antisense dTfGmGfUmGfUmCfGmUfCmCfCmUfCmUfUmAfCmCdT*dT; siRNA) [compound 2383],Relative Rluc-Hif2α,0.1 nM RNAi trigger,0.833 ± 0.082
same,Relative Rluc-Hif2α,1 nM RNAi trigger,1.060 ± 0.292
